{"source": "patent US20240409602A1", "about": "“PEPTIDE MODULATORS OF NEUROLIGIN 4-NEUREXIN 1-BETA AXIS FOR TREATMENT OF LIVER DISORDERS” (HADASIT MEDICAL RESEARCH SERVICES AND DEVELOPMENT LTD., priority 2022, published 2024)", "key": {"NK cells": {"tested_on": "NK cells", "experiment": "NK cell activation (CD107a) in monoculture, flow cytometry", "type": "cell-based, human", "from_the_text": "(§1) Inhibitory Peptide synthesis: inhibitory peptide 1: MEQGEFLNYD (SEQ ID NO: 1), inhibitory peptide 2: QILMEQGEFLNYDIM (SEQ ID NO: 2), inhibitory peptide 3: […] (SEQ ID NO: 3), and a control peptide having a scrambled sequence: LEGEDQNFYM (SEQ ID NO: 7) were synthesized by Pepscan Ltd. at a purity of 98.3%.\n(§2) Cells: primary NK cells were isolated from patients having advanced fibrosis, human hepatic stellate cells (LX2) were commercially purchased.\nMonoculture conditions: peptides were supplemented to media of cultured NK cells for 6 h stimulation.\n(§3) Fluorescence-activated cell sorting (FACS): Staining colors of antibodies was as follows: αSMA>PE, CD107>FITC, CD56>. After analysis using LSR Fortessa analyzer, raw data was transferred to analysis program FCS Express v7.0.\nThree peptides potentially having an inhibitory effect on NLGn4-Nrx1β PPI were generated. The three peptides (peptide 1, peptide 2, and peptide 3) consist of different amino acid sequences (SEQ ID NO: 1, SEQ ID NO: 2, and SEQ ID NO: 3, respectively) that vary in length, all derived from the same binding site for the NLGn4X ligand β-neurexin. The active binding site includes a domain containing the amino acids 359-364 in NLGn4X and the epitopes critical for binding are E361, L363, H267, Y463, and E270.\nInitially, peptides were screened for their effect on the activity of NK cells, which was evaluated by measuring the levels of CD107a activation marker. Monocultures of NK cells were stimulated with increasing concentrations of the potentially inhibitory NLGn4-Nrx1β PPI peptides (FIG. 1 and FIGS. 2A-B)."}, "Hep3B cells": {"tested_on": "Hep3B cells", "experiment": "Cell cycle analysis of Hep3B cells by flow cytometry, PI staining", "type": "cell-based, human", "details": "8000 ng/ml", "procedure": "Cell cycle analysis by Flow cytometry: evaluation of cell cycle stage of Hep3B HCC cells, was performed according to a standard protocol, using Propidium-Iodide (PI)-staining of nuclei. To […] attenuation of the proliferative capabilities of HCC cells following modulation by peptide 1, the stage of the cell cycle of Hep3B cells treated with 8000 ng/ml peptide 1 or with a control peptide having a scrambled sequence was evaluate using flow cytometry and Propidium Iodide (PI)-staining."}, "[1]": {"tested_on": "CCl4-induced mice (acute hepatic fibrosis model)", "experiment": "Serum ALT by ELISA in CCl4 model", "type": "in vivo", "details": "5 or 10 mg/mice i.p. 3×/week for 4 weeks", "procedure": "(§4) Animal model: 40 WT naïve C57BL/6J male mice (12 weeks) were either induced for acute hepatic fibrosis by i.p injections of 0.5 μl pure carbon tetrachloride CCl4/g body weight (one to nine dilution in mineral oil) (CCl4; Sigma, C-5331) 3×/week for four weeks as an advanced model of hepatic fibrosis, or left untreated (induced n=32, control n=8 per experiment). NLGn4-Nrx1β PPI modulator peptide 1 was i.p injected to CCl4 induced mice as preventive doses from the beginning of the model starting at 1st week of CCl4 at a concentration of 5 and 10 mg/mice 3×/week for four weeks (5 mg/mice n=8, 10 mg/mice n=8). A scrambled peptide was also i.p injected to CCl4 induced mice (5 mg/mice n=8, 10 mg/mice n=8). Food and water intake were recorded every week. Mice were sacrificed two days after the final CCl4 injection. To this end, the animals were weighed and anesthetized with inhaled 5% isoflurane for 10 seconds before cervical dislocation.\n(§5) Histological and biochemical assessment of mice livers: The posterior one-third of the liver was fixed in 4% formalin for 24 hours and then paraffin-embedded in an automated tissue processor. […] Serum ALT concentrations were determined using ELISA. […]"}, "liver NK cells": {"tested_on": "liver NK cells", "experiment": "F-actin expression in liver NK cells (western blot, immunofluorescence) in CCl4 model", "type": "in vivo, mice", "details": "immune-stained liver tissue, confocal microscopy", "procedure": "as §4, with “A scrambled peptide was also i.p injected to CCl4 induced mice (5 mg/mice n=8, 10 mg/mice n=8).” left out, “Mice were sacrificed two days after the final CCl4 injection. To this end, the animals were weighed and anesthetized with inhaled 5% isoflurane for 10 seconds before cervical dislocation.” left out\nWestern blot analysis: Liver protein extracts were homogenized with buffer (50 mmol/L Tris-HCl [pH 7.61, 0.25% Triton-X 100, 0.15 M NaCl, 10 mM CaCl2) and complete mini EDTA-free protease inhibitor cocktail (Roche Diagnostics, Mannheim, Germany). […] Immunoreactivity was detected using an ECL kit (Abcam).\nImmunofluorescence staining: For deparaffinization, paraffin-embedded sections were placed at 60° C. for 15 minutes, incubated in xylene at room temperature for 15 minutes, and then transferred sequentially to 100% EtOH, 95% EtOH, 70% EtOH, and 50% EtOH for four minutes each at room temperature. […] An argon laser (488 nm excitation) was used to detect green fluorescence, and an Alexa Fluor laser (552 nm) to detect red fluorescence. […]"}, "[2]": {"tested_on": "CCl4-induced mice (acute hepatic fibrosis model)", "experiment": "Liver histology (H&E, Sirius Red, Masson's trichrome) in CCl4 model", "type": "in vivo", "details": "5 or 10 mg/mice i.p. 3×/week for 4 weeks", "procedure": "as §4, §5"}, "β-neurexin": {"tested_on": "β-neurexin", "experiment": "β-neurexin expression in liver by RT-PCR in CCl4 model", "type": "in vivo", "details": "relative to naïve mice, 5 or 10 mg/mice i.p. 3×/week for 4 weeks"}, "LX2 cells [3]": {"tested_on": "LX2 cells", "experiment": "αSMA in LX2 cells co-cultured with peptide pre-activated NK cells, flow cytometry", "type": "cell-based, human", "procedure": "as §2\nCo-culture conditions: co-cultures conditions—peptides were supplemented to media of cultured NK cells for 6 h stimulation followed by a wash, trypsinization, and coculturing on LX2 cells for an additional 24 h.\nas §3\nTo test if NLGn4-Nrx1β PPI inhibitory peptides mediated deactivation of LX2 cells is more prominent in the presence of NK cells, a co-culture setting was established for LX2 cells in the presence or absence of activated NK cells (FIGS. 4A-C).\nIn this setting, NK cells were stimulated with increasing concentrations of NLGn4-Nrx1βPPI inhibitory peptides before co-culturing them with LX2 cells, to examine whether pre-activation makes them more functional in deactivating LX2 cells."}, "LX2 cells [4]": {"tested_on": "LX2 cells", "experiment": "LX2 cell activity (αSMA) in monoculture, flow cytometry", "type": "cell-based, human", "details": "monoculture, 2000, 4000, 8000 ng/ml (peptide 3: 2000 or 4000 ng/ml), vs untreated", "from_the_text": "as §1, §2, §3\nFollowing that, the NLGn4-Nrx1β PPI peptides were screened for their effect on the activity of LX2 cells, which was evaluated by measuring the levels of αSMA activation marker. Monocultures of LX2 cells were stimulated with increasing concentrations of the NLGn4-Nrx1βPPI peptides (FIGS. 3A-C)."}, "[5]": {"biological_target": "neurexin 1β (Nrx1β) expressed on Hep3B hepatocellular carcinoma cells (human, UniProt Q9ULB1-3 31-1547)", "sequence (Q9ULB1 other isoform, or with tags, fused parts or gaps limits assumed)": "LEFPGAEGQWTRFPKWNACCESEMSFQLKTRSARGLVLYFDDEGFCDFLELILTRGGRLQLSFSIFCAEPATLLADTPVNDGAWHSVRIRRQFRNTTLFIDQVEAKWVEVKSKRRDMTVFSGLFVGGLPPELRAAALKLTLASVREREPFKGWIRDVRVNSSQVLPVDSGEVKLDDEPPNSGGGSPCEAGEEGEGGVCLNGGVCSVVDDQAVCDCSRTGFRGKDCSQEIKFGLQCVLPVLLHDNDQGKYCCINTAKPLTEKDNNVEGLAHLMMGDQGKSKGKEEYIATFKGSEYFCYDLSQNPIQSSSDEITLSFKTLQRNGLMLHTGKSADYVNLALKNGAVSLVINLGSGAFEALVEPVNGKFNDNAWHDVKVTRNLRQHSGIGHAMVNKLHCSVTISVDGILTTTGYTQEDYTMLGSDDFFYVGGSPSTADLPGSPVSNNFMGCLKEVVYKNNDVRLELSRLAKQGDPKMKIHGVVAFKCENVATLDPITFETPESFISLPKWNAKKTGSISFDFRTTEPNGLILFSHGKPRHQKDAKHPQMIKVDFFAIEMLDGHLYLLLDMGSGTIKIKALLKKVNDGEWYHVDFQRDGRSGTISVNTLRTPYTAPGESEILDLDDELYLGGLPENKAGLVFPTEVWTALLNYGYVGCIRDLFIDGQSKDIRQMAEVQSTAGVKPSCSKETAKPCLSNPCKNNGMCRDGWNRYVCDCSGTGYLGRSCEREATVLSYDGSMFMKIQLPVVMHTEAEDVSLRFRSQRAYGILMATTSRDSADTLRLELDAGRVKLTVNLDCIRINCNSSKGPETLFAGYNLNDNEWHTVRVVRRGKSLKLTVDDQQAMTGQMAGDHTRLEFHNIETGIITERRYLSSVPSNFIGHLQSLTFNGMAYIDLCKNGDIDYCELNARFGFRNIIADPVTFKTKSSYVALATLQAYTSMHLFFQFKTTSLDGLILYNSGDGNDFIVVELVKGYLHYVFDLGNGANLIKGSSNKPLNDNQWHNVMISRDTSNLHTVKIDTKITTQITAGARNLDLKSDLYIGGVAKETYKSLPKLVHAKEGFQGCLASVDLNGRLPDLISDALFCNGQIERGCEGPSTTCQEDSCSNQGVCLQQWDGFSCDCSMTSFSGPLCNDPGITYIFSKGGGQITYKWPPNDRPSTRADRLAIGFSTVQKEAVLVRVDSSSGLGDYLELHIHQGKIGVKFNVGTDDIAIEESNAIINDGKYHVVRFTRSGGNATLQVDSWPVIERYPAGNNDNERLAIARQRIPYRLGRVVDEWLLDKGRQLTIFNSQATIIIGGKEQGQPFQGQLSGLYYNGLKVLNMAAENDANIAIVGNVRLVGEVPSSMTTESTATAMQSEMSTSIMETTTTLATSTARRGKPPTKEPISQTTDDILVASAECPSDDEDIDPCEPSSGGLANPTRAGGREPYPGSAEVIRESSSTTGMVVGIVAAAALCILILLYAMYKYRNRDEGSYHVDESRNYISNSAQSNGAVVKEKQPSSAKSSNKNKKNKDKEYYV", "experiment": "cell-based or functional assay"}}, "note": "No end group written: not given here.", "data": [{"molecule": "DPQILMEQGEFLNYDIMLGV [peptide 3]", "values": [{"measurement": "toxicity to NK cells", "setting": "NK cells; inferred from CD107a decrease at higher peptide concentrations", "result": "may be toxic to the cells"}]}, {"molecule": "LEGEDQNFYM [scrambled peptide]", "values": [{"measurement": "percentage of cells existing at a state of G1", "setting": "Hep3B cells", "result": 38, "unit": "%"}, {"measurement": "percentage of cells existing at a state of G2-M phase", "setting": "Hep3B cells", "result": 25, "unit": "%"}, {"measurement": "percentage of cells existing at a state of S-phase", "setting": "Hep3B cells", "result": 11, "unit": "%"}, {"measurement": "levels of serum ALT", "setting": "[1]", "result": "significant increase in ALT levels"}, {"measurement": "F-actin inside NK cells, co-localization with NKP46 (immunofluorescence)", "setting": "liver NK cells", "result": "not seen inside NK cells"}, {"measurement": "collagen deposition / fibrous dense tissue (Sirius Red staining)", "setting": "[2]", "result": "increased collagen deposition in perisinusoidal areas"}, {"measurement": "levels of β-neurexin in liver", "setting": "β-neurexin", "result": "elevated levels of β-neurexin"}]}, {"molecule": "QILMEQGEFLNYDIM [peptide 2]", "values": [{"measurement": "dose dependence of effect in co-culture (αSMA)", "setting": "LX2 cells [3]; NK cells pre-activated with increasing concentrations", "result": "not dose-dependent"}, {"measurement": "activity of LX2 cells (levels of αSMA) in co-culture with pre-activated NK cells", "setting": "LX2 cells [3]; NK cells pre-stimulated 6 h with 2000-8000 ng/ml peptide, co-culture 24 h", "result": "downregulated the activity of the LX2 cells"}, {"measurement": "activity of NK cells (levels of CD107a)", "setting": "NK cells; monoculture, 6 h stimulation, 2000, 4000, 8000 ng/ml (peptide 3: 2000 or 4000 ng/ml), vs untreated", "result": "elevated the activity of the cells"}, {"measurement": "dose dependence of effect on NK cell activity (CD107a)", "setting": "NK cells; monoculture, increasing concentrations 2000-8000 ng/ml", "result": "not dose-dependent"}, {"measurement": "activity of LX2 cells (levels of αSMA)", "setting": "LX2 cells [4]", "result": "deactivation of the cells"}]}, {"molecule": "MEQGEFLNYD", "note": "[NLGn4-Nrx1β PPI inhibitory peptide 1]", "values": [{"measurement": "apoptotic marker phosphatidylserine (Annexin-V+/PI-) in Hep3B cells (flow cytometry), peptide 1 against scrambled control peptide", "setting": "[5]", "result": 3, "unit": "fold increase"}, {"measurement": "expression of PDGFRA and MKI67 proliferation markers in Hep3B cells (flow cytometry), peptide 1 against scrambled control peptide", "setting": "[5]", "result": "~2", "unit": "fold reduction"}, {"measurement": "expression of the necrotic marker CDNK2A in Hep3B cells (flow cytometry), peptide 1 against scrambled control peptide", "setting": "[5]", "result": 2, "unit": "fold reduction"}, {"measurement": "percentage of Hep3B cells in G1 phase (PI staining, flow cytometry), 8000 ng/ml peptide 1 against scrambled control peptide", "setting": "[5]", "result": "~2", "unit": "fold increase"}, {"measurement": "percentage of Hep3B cells in G2-M phase (PI staining, flow cytometry), 8000 ng/ml peptide 1 against scrambled control peptide", "setting": "[5]", "result": 2.5, "unit": "fold decrease"}, {"measurement": "percentage of Hep3B cells in S-phase (PI staining, flow cytometry), 8000 ng/ml peptide 1 against scrambled control peptide", "setting": "[5]", "result": "~2", "unit": "fold decrease"}, {"measurement": "phosphorylated AKT/mTOR/P70S6K in Hep3B cells (flow cytometry), peptide 1 against scrambled control peptide", "setting": "[5]", "result": 2, "unit": "fold reduction"}]}]}
